Measured values: patent US8252822B2, “Heterocyclic compounds and uses as anticancer agents” (Acea Biosciences, Inc., priority 2007, dated 2012)

Experiments:
A549 cells = test: RT-CES cell proliferation inhibition, A549; format: cell-based, Human
Source text: The biological activity of compounds disclosed herein was monitored and profiled using the Real-Time Cell Electronic Sensing (RT-CES®) system from ACEA Biosciences, Inc. The RT-CES system utilizes cell-substrate impedance technology to monitor cellular behavior inside tissue culture wells in a microtiter plate format. The technology features in the integration of molecular and cell biology with microelectronics and is based on the electronic detection of biological assay process. The details of this cell electronic sensing technology and associated devices, systems and methods of use as described in U.S. provisional application No. 60/379,749, filed on Jul. 20, 2002; U.S. provisional application No. 60/435,400, filed on Dec. 20, 2002; U.S. Provisional application 60/469,572, filed on May 9, 2003, PCT application number PCT/US03/22557, filed on Jul. 18, 2003; PCT application number PCT/US03/22537, filed on Jul. 18, 2003; U.S. patent application Ser. No. 10/705,447, filed on Nov. 10, 2003; U.S. patent application Ser. No. 10/705,615, filed on Nov. 10, 2003, each of which is incorporated by reference. Additional details of RT-CES technology is further disclosed in U.S. provisional application No. 60/519,567, filed on Nov. 12, 2003, and U.S. provisional application No. 60/542,927, filed on Feb. 9, 2004.
For measurement of cell-substrate or cell-electrode impedance using RT-CES technology, microelectrodes having appropriate geometries are fabricated onto the bottom surfaces of microtiter plate or similar device, facing into the wells. Cells are introduced into the wells of the devices, and make contact to and attach to the electrode surfaces. The presence, absence or change of properties of cells affects the electronic and ionic passage on the electrode sensor surfaces. Measuring the impedance between or among electrodes provides important information about biological status of cells present on the sensors. When there are changes to the biological status of the cells analogue electronic readout signals are measured automatically and in real time, and are converted to digital signals for processing and for analysis. In a RT-CES system, a cell index (arbitrary representation of change in impedance) is automatically derived and provided based on measured electrode impedance values. The cell index obtained for a given well reflects: 1) how many cells are attached to the electrode surfaces in this well; 2) how well cells are attached to the electrode surfaces in this well. Thus, the more the cells of same type in similar physiological conditions attach the electrode surfaces, the larger the cell index. And, the better the cells attach to the electrode surfaces (e.g., the cells spread-out more to have larger contact areas, or the cells attach tighter to electrode surfaces), the larger the cell index.
The RT-CES system comprises three components, an electronic sensor analyzer, a device station and 16× or 96× microtiter devices. Microelectrode sensor array was fabricated on glass slides with lithographical microfabrication methods and the electrode-containing slides are assembled to plastic trays to form electrode-containing wells. The device station receives the 16× or 96× microtiter plate devices and is capable of electronically switching any one of the wells to the sensor analyzer for impedance measurement. In operation, the devices with cells cultured in the wells are placed into a device station that is located inside an incubator. Electrical cables connect the device station to the sensor analyzer. Under the RT-CES software control, the sensor analyzer can automatically select wells to be measured and continuously conduct impedance measurements. The impedance data from the analyzer is transferred to a computer, analyzed and processed by the integrated software.
To quantify cell status based on the measured cell-electrode impedance, a parameter termed Cell Index is derived. […]

SMILES | response pattern of A549 cells compared with paclitaxel (A549 cells; 140 nM of compound vs 12.5 nM of paclitaxel) | response pattern of A549 cells compared with paclitaxel (A549 cells; 560 nM of compound vs 25 nM of paclitaxel) | concentration at or above which cell indices first decreased with time and then increased (A549 cells; A549, complex kinetic responses) [µM] | IC50 (A549 cells; Homo sapiens, A549, 24 hours after compound treatment, normalized Cell Index, read-out: IC50 (24 hr)) [µM] | inhibitory ability against the proliferation of A549 cells (A549 cells; various concentrations studied, time-dependent cell index) | melting point [°C]
Br.Cc1nc2sccn2c1-c1csc(Nc2ccc(Br)cc2)n1 [Compound 28, 2-(4-bromophenyl)amino-4-(6-methylimidazo[2,1-b]thiazol-5-yl)thiazole] | somewhat similar | somewhat similar | ≥ 0.14 | 0.0864 | exhibited inhibitory ability against the proliferation of A549 cells | 
Br.Cc1nc2sccn2c1-c1csc(Nc2ccc(Br)cc2)n1 |  |  |  |  |  | > 250
